# Assay results taken from patent US12427134B2, “Methods of reducing the risk of cardiovascular events in a subject with atrial fibrillation and/or atrial flutter” (priority 2019, dated 2025).
# Tested on: hypertriglyceridemic patients with cardiovascular disease or at high risk for cardiovascular disease
# Test: REDUCE-IT: treatment-emergent adverse events and serious adverse events (safety population)
# Description: Specification of Variables and Procedures: Safety assessments included adverse events, clinical laboratory measurements (chemistry, hematology), 12-lead ECGs, vital signs (systolic and diastolic blood pressure, heart rate, respiratory rate, and body temperature), weight, waist circumference, and physical examinations as per Study Procedures in Table 1. […] All laboratory test results were evaluated by the investigator as to their clinical significance. Any observations at physical examinations or laboratory values considered by the investigator to be clinically significant were considered an adverse event.
# An adverse event can therefore be any unfavorable and/or unintended sign (including an abnormal laboratory finding), symptom, or disease temporally associated with the use of an investigational medication product, whether or not related to the investigational medication product. All adverse events, including observed or volunteered problems, complaints, or symptoms, were recorded on the appropriate CRF. Each adverse event was evaluated for duration, intensity, and causal relationship with the study medication or other factors.
# Adverse events, which included clinical laboratory test variables, were monitored from the time of informed consent until study participation was complete. Patients were instructed to report any adverse event that they experienced to the investigator. Beginning with Visit 2, investigators assessed for adverse events at each visit and recorded the event on the appropriate adverse event CRF.
# Causality Assessment: The relationship of an adverse event to the administration of the study drug was assessed according to the following definitions: • No (unrelated, not related, no relation)—The time course between the administration of study drug and the occurrence or worsening of the adverse event rules out a causal relationship and another cause (concomitant drugs, therapies, complications, etc.) is suspected. • Yes (related, probably related, possibly related)—The time course between the administration of study drug and the occurrence or worsening of the adverse event is consistent with a causal relationship and no other cause (concomitant drugs, therapies, complications, etc.) can be identified.
# Serious Adverse Events: A serious adverse event (SAE) is defined as an adverse event that meets any of the following criteria: • Results in death; • Is life-threatening—The term “life-threatening” in the definition of “serious” refers to an event in which the patient was at risk of death at the time of the event. […] Important medical events that may not result in death, be life threatening, or require hospitalization were considered an SAE when, based upon appropriate medical judgment, they may have jeopardized the patient and may have required medical or surgical intervention to prevent one of the outcomes listed above.
# Analysis of Safety: All analyses of safety were conducted on the safety population, which was defined as all randomized patients. The safety assessment was based on the frequency of adverse events, physical exams, vital signs and safety laboratory tests. AEs with new onset during the study between the initiation of study drug and 30 days after the last dose of study drug for each patient was considered treatment-emergent (TEAEs). This included any AE with onset prior to initiation of study drug and increased severity after the treatment initiation.
# This included overall incidence rates (regardless of severity and relationship to study drug), and incidence rates for moderate or severe adverse events. A summary of SAEs and adverse events leading to early discontinuation (for ≥30 days) were presented through data listings. Patients who restarted study drug were included in the summary of AEs leading to discontinuation.
smiles,measurement,setting,value
"CC/C=C\C/C=C\C/C=C\C/C=C\C/C=C\CCCC(=O)OCC [AMR101, eicosapentaenoic acid ethyl ester]","TEAE: Respiratory, thoracic, and mediastinal disorders, %",Region Westernized (N = 2906),(30.9) %
same,"Diarrhea leading to study drug withdrawal, patients",Safety population,1.1%
same,"Nausea leading to study drug withdrawal, patients",Safety population,0.6%
same,Patients with SAE leading to study drug withdrawal,Safety population,2.2%
same,Patients with TEAE leading to study drug withdrawal,Safety population,7.9%
same,Patients with at least one SAE,Safety population,30.6%
same,Patients with at least one TEAE,Safety population,81.8%
same,Patients with serious TEAE leading to death,Safety population,2.3%
same,"SAE acute kidney injury, patients",Safety population,1.1
same,"SAE angina pectoris, patients",Safety population,1.2%
same,"SAE chest pain, patients",Safety population,1.6%
same,"SAE class GI disorders, patients",Safety population,4.7%
same,"SAE class cardiac disorders, patients",Safety population,4.7%
same,"SAE class musculoskeletal and connective tissue disorders, patients",Safety population,4.6%
same,"SAE class neoplasms benign, malignant, and unspecified, patients",Safety population,5.4%
same,"SAE non-cardiac chest pain, patients",Safety population,1.2%
same,"SAE osteoarthritis, patients",Safety population,2.0%
same,Serious TEAE,Safety population,1252 (30.6%) n (%)
same,Serious TEAE Leading to Death,Safety population,94 (2.3%) n (%)
same,Serious TEAE Leading to Withdrawal of Study Drug,Safety population,88 (2.2%) n (%)
same,Serious TEAE: Pneumonia,Safety population,105 (2.6%) n (%)
same,"Serious adverse event pneumonia, patients",Safety population,2.6%
same,"Serious anemia, patients",Safety population,0.5%
same,"Severe TEAE acute kidney injury, patients",Safety population,0.7%
same,"Severe TEAE chest pain, patients",Safety population,0.7%
same,"Severe TEAE osteoarthritis, patients",Safety population,0.8%
same,"Severe TEAE pneumonia, patients",Safety population,1.5%
same,"Severe TEAE, patients with at least one",Safety population,19.7%
same,"Study drug-related SAE, patients with at least one",Safety population,0.2%
same,"Study drug-related TEAE class GI disorders, patients",Safety population,7.4%
same,"Study drug-related TEAE diarrhea, patients",Safety population,2.7%
same,"Study drug-related TEAE leading to study drug withdrawal, patients",Safety population,3.4%
same,"Study drug-related TEAE, patients with at least one",Safety population,12.6%
same,"Study drug-related diarrhea leading to study drug withdrawal, patients",Safety population,1.0%
same,TEAE Leading to Withdrawal of Study Drug,Safety population,321 (7.9%) n (%)
same,"TEAE anemia, patients",Safety population,4.7%
same,"TEAE atrial fibrillation, patients",Safety population,5.3%
same,"TEAE class GI disorders leading to study drug withdrawal, patients",Safety population,3.6%
same,"TEAE class general disorders and administration site conditions, patients",Safety population,25.2%
same,"TEAE class musculoskeletal and connective tissue disorders, patients",Safety population,35.9%
same,"TEAE class nervous system disorders, patients",Safety population,24.6%
same,"TEAE constipation, patients",Safety population,5.4%
same,"TEAE diarrhea, patients",Safety population,9%
same,"TEAE gastrointestinal disorders, patients",Safety population,33.0%
same,"TEAE of special interest: abnormal glucose control, patients",Safety population,15.2%
same,"TEAE of special interest: hepatic disorders, patients",Safety population,5.4%
same,"TEAE peripheral edema, patients",Safety population,6.5%
same,TEAE: Anemia,Safety population,191 (4.7%) n (%)
same,TEAE: Angina pectoris,Safety population,200 (4.9%) n (%)
same,TEAE: Arthralgia,Safety population,313 (7.7%) n (%)
same,TEAE: Atrial fibrillation,Safety population,215 (5.3%) n (%)
same,TEAE: Back pain,Safety population,335 (8.2%) n (%)
same,TEAE: Bronchitis,Safety population,306 (7.5%) n (%)
same,TEAE: Cataract,Safety population,233 (5.7%) n (%)
same,TEAE: Chest pain,Safety population,273 (6.7%) n (%)
same,TEAE: Constipation,Safety population,221 (5.4%) n (%)
same,TEAE: Cough,Safety population,241 (5.9%) n (%)
same,TEAE: Diarrhea,Safety population,367 (9.0%) n (%)
same,TEAE: Dizziness,Safety population,235 (5.7%) n (%)
same,TEAE: Dyspnea,Safety population,254 (6.2%) n (%)
same,TEAE: Fatigue,Safety population,228 (5.6%) n (%)
same,TEAE: Gastroesophageal Reflux Disease,Safety population,124 (3.0%) n (%)
same,TEAE: Gastrointestinal disorders,Safety population,1350 (33.0%) n (%)
same,TEAE: Hypertension,Safety population,320 (7.8%) n (%)
same,TEAE: Influenza,Safety population,263 (6.4%) n (%)
same,TEAE: Nasopharyngitis,Safety population,314 (7.7%) n (%)
same,TEAE: Nausea,Safety population,190 (4.6%) n (%)
same,TEAE: Osteoarthritis,Safety population,241 (5.9%) n (%)
same,TEAE: Pain in extremity,Safety population,235 (5.7%) n (%)
same,TEAE: Peripheral edema,Safety population,267 (6.5%) n (%)
same,TEAE: Pneumonia,Safety population,263 (6.4%) n (%)
same,TEAE: Upper respiratory tract infection,Safety population,312 (7.6%) n (%)
same,TEAE: Urinary tract infection,Safety population,253 (6.2%) n (%)
same,"TEAE of special interest: Hepatic disorders, %","Safety population N = 4089, P-value 0.3180",(5.4) %
same,"TEAE of special interest: Abnormal glucose control, %","Safety population N = 4089, P-value 0.8059",(15.2) %
same,"CEC-adjudicated CV deaths (excluding deaths with undetermined cause), %","Safety population, N = 4089",(3.4) %
same,"CEC-adjudicated Deaths with undetermined cause, %","Safety population, N = 4089",(0.9) %
same,"CEC-adjudicated Non-CV deaths, %","Safety population, N = 4089",(2.4) %
same,"CEC-adjudicated deaths: Total mortality, %","Safety population, N = 4089",(6.7) %
same,"Patients with at least 1 TEAE, %","Safety population, N = 4089",(81.8) %
same,"Patients with at least 1 serious TEAE, % patients","Safety population, N = 4089",(30.6) %
same,"Patients with at least 1 serious TEAE, n patients","Safety population, N = 4089",1252
same,"Patients with at least 1 severe TEAE, %","Safety population, N = 4089",(19.7) %
same,"Patients with at least 1 study drug-related TEAE leading to study drug withdrawal, % patients","Safety population, N = 4089",(3.4) %
same,"Patients with at least 1 study drug-related TEAE leading to study drug withdrawal, n patients","Safety population, N = 4089",139
same,"Patients with at least 1 study drug-related TEAE, %","Safety population, N = 4089",(12.6) %
same,"Serious TEAE Leading to Death, %","Safety population, N = 4089",(2.3) %
same,"Serious TEAE Leading to Withdrawal of Study Drug, %","Safety population, N = 4089",(2.2) %
same,"Serious TEAE, %","Safety population, N = 4089",(30.6) %
same,"Serious adverse event - Acute kidney injury, % patients","Safety population, N = 4089",(1.1) %
same,"Serious adverse event - Acute kidney injury, n patients","Safety population, N = 4089",47
same,"Serious adverse event - Acute respiratory failure, % patients","Safety population, N = 4089",(0.5) %
same,"Serious adverse event - Acute respiratory failure, n patients","Safety population, N = 4089",19
same,"Serious adverse event - Anemia, % patients","Safety population, N = 4089",(0.5) %
